System: NOMO1
Assay: cell viability relative to DMSO control; higher = less cytotoxic
Conditions: 48 h
Procedure, shortened: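 Viability was expressed as a per-plate percentage of DMSO wells, with cell-free wells as background. Leukemia cells (NOMO1 or SEM at 500 cells/well, P12-Ichikawa at 1000 cells/well) were adapted for at least four passages in each medium and seeded in 1536-well plates (5 μl). Library compounds in DMSO were pin-dosed over an 11-point threefold series from 47 μM to 0.79 nM, and CellTiter-Glo One luminescence was read after 48 h at 37°C.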

[1] = RPMI 5 mM glucose + 10% FBS, 0.000781 µM
[2] = RPMI 5 mM glucose + 10% FBS, 0.00234 µM
[3] = RPMI 5 mM glucose + 10% FBS, 0.00702 µM
[4] = RPMI 5 mM glucose + 10% FBS, 0.0211 µM
[5] = RPMI 5 mM glucose + 10% FBS, 0.0632 µM
[6] = RPMI 5 mM glucose + 10% FBS, 0.19 µM
[7] = RPMI 5 mM glucose + 10% FBS, 0.569 µM
[8] = RPMI 5 mM glucose + 10% FBS, 1.71 µM
[9] = RPMI 5 mM glucose + 10% FBS, 5.12 µM
[10] = RPMI 5 mM glucose + 10% FBS, 15.4 µM
[11] = RPMI 5 mM glucose + 10% FBS, 46.1 µM

Structure (SMILES) | cell viability [1] | cell viability [2] | cell viability [3] | cell viability [4] | cell viability [5] | cell viability [6] | cell viability [7] | cell viability [8] | cell viability [9] | cell viability [10] | cell viability [11] | cell viability (RPMI 5 mM glucose + 10% dialyzed FBS, 0.000781 µM) | cell viability (RPMI 5 mM glucose + 10% dialyzed FBS, 0.00234 µM) | cell viability (RPMI 5 mM glucose + 10% dialyzed FBS, 0.00702 µM) | cell viability (RPMI 5 mM glucose + 10% dialyzed FBS, 0.0211 µM) | cell viability (RPMI 5 mM glucose + 10% dialyzed FBS, 0.0632 µM) | cell viability (RPMI 5 mM glucose + 10% dialyzed FBS, 0.19 µM) | cell viability (RPMI 5 mM glucose + 10% dialyzed FBS, 0.569 µM) | cell viability (RPMI 5 mM glucose + 10% dialyzed FBS, 1.71 µM) | cell viability (RPMI 5 mM glucose + 10% dialyzed FBS, 5.12 µM) | cell viability (RPMI 5 mM glucose + 10% dialyzed FBS, 15.4 µM) | cell viability (RPMI 5 mM glucose + 10% dialyzed FBS, 46.1 µM)
CC(C)[C@H](C(=O)Nc1ccc(C(=O)NO)cc1)c1ccccc1 | 113% | 108% | 122% | 138% | 119% | 131% | 125% | 118% | 19% | 8.3% | 8.21% |  |  |  |  |  |  |  |  |  |  | 
CC(=O)OCC(=O)[C@@]1(O)CC[C@H]2[C@@H]3CCC/4=C/C(=O)/C=C\[C@]4(C)[C@H]3[C@@H](O)C[C@]12C | 131% | 119% | 121% | 119% | 114% | 119% | 120% | 112% | 119% | 106% | 115% |  |  |  |  |  |  |  |  |  |  | 
Cc1n[nH]c2ccc(-c3cncc(OC[C@@H](N)Cc4ccccc4)c3)cc12 | 127% | 118% | 113% | 125% | 120% | 113% | 110% | 99.7% | 23.6% | 12.9% | 5.8% | 134% | 124% | 120% | 114% | 133% | 83.5% | 109% | 77.9% | 15.1% | 8.65% | 4.35%
